Holding throughout (format): cell-based
Assay [1] addresses T1, human TLR8 (Homo sapiens, UniProt Q9NR97).
T1 construct: host or cells: HEK-Blue cells
T1 sequence (Q9NR97 27-1041): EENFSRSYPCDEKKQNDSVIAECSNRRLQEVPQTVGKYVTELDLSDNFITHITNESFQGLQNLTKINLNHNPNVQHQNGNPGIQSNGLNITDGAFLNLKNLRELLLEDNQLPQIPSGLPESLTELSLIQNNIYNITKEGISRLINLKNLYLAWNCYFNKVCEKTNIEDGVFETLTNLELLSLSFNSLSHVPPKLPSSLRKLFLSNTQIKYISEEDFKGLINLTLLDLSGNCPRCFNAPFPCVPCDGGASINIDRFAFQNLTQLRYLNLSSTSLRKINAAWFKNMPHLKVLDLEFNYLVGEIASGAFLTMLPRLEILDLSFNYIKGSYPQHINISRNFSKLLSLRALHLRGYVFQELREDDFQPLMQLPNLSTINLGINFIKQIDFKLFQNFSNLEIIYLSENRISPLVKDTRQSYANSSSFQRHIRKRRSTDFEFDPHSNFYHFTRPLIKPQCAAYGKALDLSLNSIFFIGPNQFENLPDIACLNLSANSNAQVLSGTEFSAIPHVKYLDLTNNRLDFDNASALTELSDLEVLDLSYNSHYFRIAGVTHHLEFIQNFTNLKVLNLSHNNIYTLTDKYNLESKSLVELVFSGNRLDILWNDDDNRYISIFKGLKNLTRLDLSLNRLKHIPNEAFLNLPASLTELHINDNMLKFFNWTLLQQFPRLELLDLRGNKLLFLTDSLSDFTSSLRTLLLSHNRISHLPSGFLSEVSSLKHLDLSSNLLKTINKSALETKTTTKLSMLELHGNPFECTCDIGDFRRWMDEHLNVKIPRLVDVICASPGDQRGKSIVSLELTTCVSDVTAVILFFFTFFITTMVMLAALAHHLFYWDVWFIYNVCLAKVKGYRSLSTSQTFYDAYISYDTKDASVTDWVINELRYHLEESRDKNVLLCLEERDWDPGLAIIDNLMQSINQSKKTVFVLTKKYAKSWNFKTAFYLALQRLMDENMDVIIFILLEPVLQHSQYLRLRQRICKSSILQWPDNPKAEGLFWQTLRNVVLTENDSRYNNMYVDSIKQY
The assay is described as follows: TLR8 inhibition reporter assay (HEK-Blue SEAP). Particulars: HEK-Blue cells overexpressing human TLR8, stimulated with R848 15.9 μM, 22 hour incubation. The procedure:
(§1) TLR7/8/9 Inhibition Reporter Assays
(§2) HEK-Blue™-cells (Invivogen) overexpressing human TLR7, TLR8 or TLR9 receptors were used for screening inhibitors of these receptors using an inducible SEAP (secreted embryonic alkaline phosphatase) reporter gene under the control of the IFN-β minimal promoter fused to five NF-κB and AP-1-binding sites. Briefly, cells are seeded into Greiner 384 well plates (15000 cells per well for TLR7, 20,000 for TLR8 and 25,000 for TLR9) and then treated with test compounds in DMSO to yield a final dose response concentration range of 0.05 nM to 50 μM. After a 30 minute compound pre-treatment at room temperature, the cells are then stimulated with a TLR7 ligand (gardiquimod at a final concentration of 7.5 μM), TLR8 ligand (R848 at a final concentration of 15.9 μM) or TLR9 ligand (ODN2006 at a final concentration of 5 nM) to activate NF-κB and AP-1 which induce the production of SEAP. After a 22 hour incubation at 37° C., 5% CO2, SEAP levels are determined with the addition of HEK-Blue™ Detection reagent (Invivogen), a cell culture medium that allows for detection of SEAP, according to manufacturer's specifications. The percent inhibition is determined as the % reduction in the HEK-Blue signal present in wells treated with agonist plus DMSO alone compared to wells treated with a known inhibitor.
(In general: A reporter such as luciferase makes a cellular process visible.)

Assay [2] deals with T2, human TLR7 (Homo sapiens, UniProt Q9NYK1).
T2 construct: host or cells: HEK-Blue cells
T2 sequence (Q9NYK1 27-1049): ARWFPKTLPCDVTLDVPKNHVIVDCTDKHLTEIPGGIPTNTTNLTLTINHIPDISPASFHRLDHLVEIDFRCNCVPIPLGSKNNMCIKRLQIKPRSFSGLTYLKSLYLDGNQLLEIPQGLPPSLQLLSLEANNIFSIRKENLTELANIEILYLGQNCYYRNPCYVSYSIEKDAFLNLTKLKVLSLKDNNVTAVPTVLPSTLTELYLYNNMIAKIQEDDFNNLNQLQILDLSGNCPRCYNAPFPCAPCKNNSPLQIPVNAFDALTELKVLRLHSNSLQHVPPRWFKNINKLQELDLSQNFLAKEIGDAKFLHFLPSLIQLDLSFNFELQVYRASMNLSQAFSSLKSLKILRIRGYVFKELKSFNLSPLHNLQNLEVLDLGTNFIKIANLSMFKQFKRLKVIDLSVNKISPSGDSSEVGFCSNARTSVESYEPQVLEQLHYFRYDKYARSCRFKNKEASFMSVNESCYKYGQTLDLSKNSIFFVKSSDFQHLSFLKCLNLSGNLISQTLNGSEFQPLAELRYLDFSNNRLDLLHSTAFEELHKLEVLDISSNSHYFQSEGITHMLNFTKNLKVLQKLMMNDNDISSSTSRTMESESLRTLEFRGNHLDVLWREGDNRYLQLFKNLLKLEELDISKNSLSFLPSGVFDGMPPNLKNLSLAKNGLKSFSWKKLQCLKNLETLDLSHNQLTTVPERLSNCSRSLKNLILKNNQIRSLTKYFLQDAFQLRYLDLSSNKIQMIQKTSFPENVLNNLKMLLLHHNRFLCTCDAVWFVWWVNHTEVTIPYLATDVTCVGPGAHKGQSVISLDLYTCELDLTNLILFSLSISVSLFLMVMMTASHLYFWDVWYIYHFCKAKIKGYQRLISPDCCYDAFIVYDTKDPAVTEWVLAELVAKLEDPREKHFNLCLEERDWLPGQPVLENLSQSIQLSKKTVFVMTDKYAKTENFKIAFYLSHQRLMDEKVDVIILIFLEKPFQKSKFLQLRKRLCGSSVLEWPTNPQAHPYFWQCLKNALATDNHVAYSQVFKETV
The assay is described as follows: TLR7 inhibition reporter assay (HEK-Blue SEAP). Conditions: HEK-Blue cells overexpressing human TLR7, stimulated with gardiquimod 7.5 μM, 22 hour incubation. How it is done:
as §1, §2

The target in assay [3] is T3, human TLR9 (Homo sapiens, UniProt Q9NR96).
T3 construct: host or cells: HEK-Blue cells
T3 sequence (Q9NR96 26-1032): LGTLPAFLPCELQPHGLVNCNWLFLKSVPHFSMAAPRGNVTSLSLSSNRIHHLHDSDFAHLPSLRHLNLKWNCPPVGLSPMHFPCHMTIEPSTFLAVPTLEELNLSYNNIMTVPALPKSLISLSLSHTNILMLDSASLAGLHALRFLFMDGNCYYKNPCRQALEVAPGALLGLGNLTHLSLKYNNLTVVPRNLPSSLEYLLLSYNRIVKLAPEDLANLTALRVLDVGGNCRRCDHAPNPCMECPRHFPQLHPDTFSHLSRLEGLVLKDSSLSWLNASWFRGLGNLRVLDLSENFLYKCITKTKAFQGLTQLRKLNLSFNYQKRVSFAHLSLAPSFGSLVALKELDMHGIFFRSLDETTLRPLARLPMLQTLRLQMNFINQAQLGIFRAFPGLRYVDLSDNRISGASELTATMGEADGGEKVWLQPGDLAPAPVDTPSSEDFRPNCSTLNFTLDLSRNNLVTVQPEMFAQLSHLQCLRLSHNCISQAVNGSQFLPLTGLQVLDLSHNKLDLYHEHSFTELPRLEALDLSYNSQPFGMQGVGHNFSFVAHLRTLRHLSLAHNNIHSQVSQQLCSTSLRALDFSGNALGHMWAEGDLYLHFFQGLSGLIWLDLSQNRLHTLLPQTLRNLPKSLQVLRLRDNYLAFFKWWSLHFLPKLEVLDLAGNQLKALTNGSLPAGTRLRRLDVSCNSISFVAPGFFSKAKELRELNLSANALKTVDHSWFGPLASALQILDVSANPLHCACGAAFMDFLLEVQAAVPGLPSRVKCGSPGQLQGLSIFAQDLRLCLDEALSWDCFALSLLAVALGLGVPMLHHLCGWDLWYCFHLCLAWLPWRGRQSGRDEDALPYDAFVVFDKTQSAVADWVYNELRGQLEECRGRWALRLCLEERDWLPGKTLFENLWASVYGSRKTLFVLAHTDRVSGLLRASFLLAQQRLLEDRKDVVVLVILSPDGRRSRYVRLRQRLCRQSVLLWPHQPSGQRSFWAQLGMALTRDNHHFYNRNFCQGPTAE
The assay is described as follows: TLR9 inhibition reporter assay (HEK-Blue SEAP). Conditions: HEK-Blue cells overexpressing human TLR9, stimulated with ODN2006 5 nM, 22 hour incubation. How it is done:
as §1, §2

Data on nine molecules can be found in US12172995B2, “Substituted indole and indazole compounds” (BRISTOL-MYERS SQUIBB COMPANY, priority 2018, dated 2024).

`Cc1cc2c(C3CCC(NC(C)C)CC3)n[nH]c2cc1-c1cc(C)c2ncnn2c1` (single isomer, unassigned) [Example 38, N-isopropyl-4-(5-methyl-6-(8-methyl-[1,2,4]triazolo[1,5-a]pyridin-6-yl)-1H-indazol-3-yl)cyclohexan-1-amine]: the half-maximal inhibitory concentration (IC50) – broadly, the point on the concentration scale where inhibition reaches its midpoint – in assay [1] is 0.1 nM; in assay [2], 6 nM; in assay [3], no less than 50000 nM.

In the case of `Cc1cc2c(C3CCC(NC(C)C)CC3)n[nH]c2cc1-c1cc(C)c2ncnn2c1` (single isomer, unassigned) [Example 39, N-isopropyl-4-(5-methyl-6-(8-methyl-[1,2,4]triazolo[1,5-a]pyridin-6-yl)-1H-indazol-3-yl) cyclohexan-1-amine], the IC50 in assay [1] was 0.9 nM; in assay [2] it was 22.6 nM; in assay [3], 4120 nM.

`CCc1cc2c(C3CCC(N(C)C)CC3)n[nH]c2cc1-c1cc(C)c2ncnn2c1` (single isomer, unassigned) [Example 93, 4-(5-ethyl-6-(8-methyl-[1,2,4]triazolo[1,5-a]pyridin-6-yl)-1H-indazol-3-yl)-N,N-dimethylcyclohexan-1-amine]: the IC50 in assay [1] was found to be 0.1 nM; in assay [2] it was 0.8 nM; in assay [3] it was 6120 nM.

Consider `CCc1cc2c(C3CCC(N(C)C)CC3)n[nH]c2cc1-c1cc(C)c2ncnn2c1` (single isomer, unassigned) [Example 94, 4-(5-ethyl-6-(8-methyl-[1,2,4]triazolo[1,5-a]pyridin-6-yl)-1H-indazol-3-yl)-N,N-dimethylcyclohexan-1-amine], for which the half-inhibitory concentration (IC50) in assay [1] worked out at 0.5 nM; in assay [2], 3 nM; in assay [3], 10300 nM.

On to `CCc1cc2c(C3CCC(NC4CC4)CC3)n[nH]c2cc1-c1cc(C)c2ncnn2c1` (single isomer, unassigned) [Example 97, N-cyclopropyl-4-(5-ethyl-6-(8-methyl-[1,2,4]triazolo[1,5-a]pyridin-6-yl)-1H-indazol-3-yl)cyclohexan-1-amine], for which the 50% inhibitory concentration (IC50) worked out at 0.1 nM in assay [1], 0.6 nM in assay [2] and 5450 nM in assay [3].

With `CCc1cc2c(C3CCC(NC4CC4)CC3)n[nH]c2cc1-c1cc(C)c2ncnn2c1` (single isomer, unassigned) [Example 98, N-cyclopropyl-4-(5-ethyl-6-(8-methyl-[1,2,4]triazolo[1,5-a]pyridin-6-yl)-1H-indazol-3-yl)cyclohexan-1-amine], the 50% inhibitory concentration (IC50) in assay [1] stood at 0.2 nM; in assay [2] it was 2.5 nM; in assay [3] it was 6570 nM.

Consider `CCc1cc2c(C3CCC(NCCS(C)(=O)=O)CC3)n[nH]c2cc1-c1cc(C)c2ncnn2c1` (single isomer, unassigned) [Example 99, 4-(5-ethyl-6-(8-methyl-[1,2,4]triazolo[1,5-a]pyridin-6-yl)-1H-indazol-3-yl)-N-(2-(methylsulfonyl)ethyl)cyclohexan-1-amine], for which the half-inhibitory concentration (IC50) is 0.1 nM in assay [1], 0.9 nM in assay [2] and 14000 nM in assay [3].

As for `CCc1cc2c(C3CCC(NCCS(C)(=O)=O)CC3)n[nH]c2cc1-c1cc(C)c2ncnn2c1` (single isomer, unassigned) [Example 100, 4-(5-ethyl-6-(8-methyl-[1,2,4]triazolo[1,5-a]pyridin-6-yl)-1H-indazol-3-yl)-N-(2-(methylsulfonyl)ethyl)cyclohexan-1-amine], the results for the concentration for half-maximal inhibition (IC50) in assay [1], in assay [2] and in assay [3] were 0.2 nM, 7.5 nM and 17500 nM, respectively.

Turning to `Cc1cc(-c2cc3[nH]nc(C4CCC(NC5CC5)CC4)c3cc2C(C)C)cn2ncnc12` (single isomer, unassigned) [Example 118, N-cyclopropyl-4-(5-isopropyl-6-(8-methyl-[1,2,4]triazolo[1,5-a]pyridin-6-yl)-1H-indazol-3-yl)cyclohexan-1-amine], the IC50 in assay [1] was 0.1 nM; in assay [2], 0.3 nM; in assay [3] it was 4130 nM.
